According to ChEMBL document CHEMBL1133290, “Quantitative structure-intestinal permeability relationship of benzamidine analogue thrombin inhibitor” (2000):

organism: Rattus norvegicus; experiment: Everted sac permeability (ESA) of rat small intestine, after addition of thrombin inhibitor; format: functional

`CC(=O)N1CCN(C(=O)C(Cc2cccc(C(=N)N)c2)NS(=O)(=O)NCc2ccc(CO)cc2)CC1` (stereo unspecified) and `CC(=O)N1CCN(C(=O)C(Cc2cccc(C(=N)N)c2)NS(=O)(=O)NCc2ccccc2)CC1` (stereo unspecified) are within 0.2 log units of each other in “Log ESA” value: -0.836 for the first, -0.81 for the second.

`CC(=O)N1CCN(C(=O)C(Cc2cccc(C(=N)N)c2)NS(=O)(=O)NCCc2ccc3ccccc3c2)CC1` (stereo unspecified) and `CC(=O)N1CCN(C(=O)C(Cc2cccc(C(=N)N)c2)NS(=O)(=O)NCc2ccc3ccccc3c2)CC1` (stereo unspecified) are within 0.2 log units of each other in “Log ESA” value: -1.032 for the first, -0.932 for the second.

`COc1cccc(CNS(=O)(=O)NC(Cc2cccc(C(=N)N)c2)C(=O)N2Cc3ccccc3C2C(=O)O)c1OC` (stereo unspecified) and `COc1cccc(CNS(=O)(=O)NC(Cc2cccc(C(=N)N)c2)C(=O)N2CCC(C)CC2C(=O)O)c1OC` (stereo unspecified) are within 0.2 log units of each other in “Log ESA” value: -0.879 for the first, -1 for the second.

Going from `CC(=O)N1CCN(C(=O)C(Cc2cccc(C(=N)N)c2)NS(=O)(=O)NCc2cc(Br)cc3ccccc23)CC1` (stereo unspecified) to `CC(=O)N1CCN(C(=O)C(Cc2cccc(C(=N)N)c2)NS(=O)(=O)NCc2cccc3ccccc23)CC1` (stereo unspecified), the “Log ESA” value rises from -1.367 to -0.842.

`CC(=O)N1CCN(C(=O)C(Cc2cccc(C(=N)N)c2)NS(=O)(=O)NCCc2ccc3c(c2)OCCO3)CC1` (stereo unspecified) and `CC(=O)N1CCN(C(=O)C(Cc2cccc(C(=N)N)c2)NS(=O)(=O)NCCc2ccc3c(c2)OCO3)CC1` (stereo unspecified) are within 0.2 log units of each other in “Log ESA” value: -0.654 for the first, -0.636 for the second.

`CC(=O)N1CCN(C(=O)C(Cc2cccc(C(=N)N)c2)NS(=O)(=O)NCC2CCCCO2)CC1` (stereo unspecified) and `CC(=O)N1CCN(C(=O)C(Cc2cccc(C(=N)N)c2)NS(=O)(=O)NCCOC2CCCCC2)CC1` (stereo unspecified) are the same in “Log ESA” value: -0.708 for the first, -0.708 for the second.

Going from `CC(=O)N1CCN(C(=O)C(Cc2cccc(C(=N)N)c2)NS(=O)(=O)NCC(C)c2ccccc2)CC1` (stereo unspecified) to `CC(=O)N1CCN(C(=O)C(Cc2cccc(C(=N)N)c2)NS(=O)(=O)NCc2ccccc2O)CC1` (stereo unspecified), the “Log ESA” value rises from -0.889 to -0.514.

`CCOc1ccccc1CNS(=O)(=O)NC(Cc1cccc(C(=N)N)c1)C(=O)N1CCN(C(C)=O)CC1` (stereo unspecified) and `COc1ccccc1CNS(=O)(=O)NC(Cc1cccc(C(=N)N)c1)C(=O)N1CCN(C(C)=O)CC1` (stereo unspecified) are within 0.2 log units of each other in “Log ESA” value: -0.876 for the first, -0.815 for the second.

Compared with `CC(=O)N1CCN(C(=O)C(Cc2cccc(C(=N)N)c2)NS(=O)(=O)NCC2CCCN2Cc2ccccc2)CC1` (stereo unspecified), `CC(=O)N1CCN(C(=O)C(Cc2cccc(C(=N)N)c2)NS(=O)(=O)NCC2CNc3ccccc3C2)CC1` (stereo unspecified) is higher in “Log ESA” value: -0.963 for the first, -0.674 for the second.

`COc1cccc(CNS(=O)(=O)NC(Cc2cccc(C(=N)N)c2)C(=O)N2CCN(C(C)=O)CC2)c1` (stereo unspecified) and `COc1ccc(CNS(=O)(=O)NC(Cc2cccc(C(=N)N)c2)C(=O)N2CCN(C(C)=O)CC2)cc1OC` (stereo unspecified) are within 0.2 log units of each other in “Log ESA” value: -0.804 for the first, -0.633 for the second.

`CC(=O)N1CCN(C(=O)C(Cc2cccc(C(=N)N)c2)NS(=O)(=O)NCCc2cccc([N+](=O)[O-])c2)CC1` (stereo unspecified) and `CC(=O)N1CCN(C(=O)C(Cc2cccc(C(=N)N)c2)NS(=O)(=O)NCCc2cccc(N)c2)CC1` (stereo unspecified) are within 0.2 log units of each other in “Log ESA” value: -0.688 for the first, -0.75 for the second.

`COc1cc(CNS(=O)(=O)NC(Cc2cccc(C(=N)N)c2)C(=O)N2CCN(C(C)=O)CC2)ccc1[N+](=O)[O-]` (stereo unspecified) and `CC(=O)N1CCN(C(=O)C(Cc2cccc(C(=N)N)c2)NS(=O)(=O)NCc2ccc(Cl)cc2[N+](=O)[O-])CC1` (stereo unspecified) are within 0.2 log units of each other in “Log ESA” value: -0.559 for the first, -0.67 for the second.

`CC(=O)N1CCN(C(=O)C(Cc2cccc(C(=N)N)c2)NS(=O)(=O)NCc2c(F)c(F)c(F)c(F)c2F)CC1` (stereo unspecified) and `CC(=O)N1CCN(C(=O)C(Cc2cccc(C(=N)N)c2)NS(=O)(=O)NCc2cc(C)c(C)c(C)c2)CC1` (stereo unspecified) are within 0.2 log units of each other in “Log ESA” value: -0.65 for the first, -0.818 for the second.

Going from `CC(=O)N1CCN(C(=O)C(Cc2cccc(C(=N)N)c2)NS(=O)(=O)NCC(C)(c2ccccc2)c2ccccc2)CC1` (stereo unspecified) to `CC(=O)N1CCN(C(=O)C(Cc2cccc(C(=N)N)c2)NS(=O)(=O)NCC(c2ccccc2)c2ccccc2)CC1` (stereo unspecified), the “Log ESA” value rises from -1.456 to -1.092.

Compared with `COc1cccc(CNS(=O)(=O)NC(Cc2cccc(C(=N)N)c2)C(=O)N2CCN(C(C)=O)CC2)c1O` (stereo unspecified), `COc1ccc(CNS(=O)(=O)NC(Cc2cccc(C(=N)N)c2)C(=O)N2CCN(C(C)=O)CC2)c(OC)c1` (stereo unspecified) is higher in “Log ESA” value: -0.833 for the first, -0.602 for the second.

`CCOc1c(CNS(=O)(=O)NC(Cc2cccc(C(=N)N)c2)C(=O)N2CCN(C(C)=O)CC2)sc2ccccc12` (stereo unspecified) and `CC(=O)N1CCN(C(=O)C(Cc2cccc(C(=N)N)c2)NS(=O)(=O)NCc2c[nH]c3ccccc23)CC1` (stereo unspecified) are within 0.2 log units of each other in “Log ESA” value: -0.983 for the first, -0.914 for the second.

`CNC1CCN(C(=O)C(Cc2cccc(C(=N)N)c2)NS(=O)(=O)NCc2cccc(OC)c2OC)CC1` (stereo unspecified) and `COc1cccc(CNS(=O)(=O)NC(Cc2cccc(C(=N)N)c2)C(=O)N2CCN(CCO)CC2)c1OC` (stereo unspecified) are within 0.2 log units of each other in “Log ESA” value: -0.686 for the first, -0.796 for the second.

`CC(=O)N1CCN(C(=O)C(Cc2cccc(C(=N)N)c2)NS(=O)(=O)NCCc2cc3c(cc2[N+](=O)[O-])OCO3)CC1` (stereo unspecified) and `CC(=O)N1CCN(C(=O)C(Cc2cccc(C(=N)N)c2)NS(=O)(=O)NCCc2cccc3ncccc23)CC1` (stereo unspecified) are within 0.2 log units of each other in “Log ESA” value: -0.564 for the first, -0.686 for the second.

First: CC(=O)N1CCN(C(=O)C(Cc2cccc(C(=N)N)c2)NS(=O)(=O)NCc2cccc3cc(O)ccc23)CC1 (stereo unspecified)
Second: COc1ccc2c(CNS(=O)(=O)NC(Cc3cccc(C(=N)N)c3)C(=O)N3CCN(C(C)=O)CC3)cccc2c1 (stereo unspecified)
The “Log ESA” value of the first is higher: -0.59 for the first, -0.86 for the second.

Compared with `CC(=O)N1CCN(C(=O)C(Cc2cccc(C(=N)N)c2)NS(=O)(=O)NCCc2nccc3ccccc23)CC1` (stereo unspecified), `CC(=O)N1CCN(C(=O)C(Cc2cccc(C(=N)N)c2)NS(=O)(=O)NCCc2cccc3ccccc23)CC1` (stereo unspecified) is lower in “Log ESA” value: -0.635 for the first, -1.114 for the second.

Compared with `CC(=O)N1CCN(C(=O)C(Cc2cccc(C(=N)N)c2)NS(=O)(=O)NCCCc2ccccc2C(=O)N2CCCC2)CC1` (stereo unspecified), `CC(=O)N1CCN(C(=O)C(Cc2cccc(C(=N)N)c2)NS(=O)(=O)NCC2COc3ccccc3O2)CC1` (stereo unspecified) is higher in “Log ESA” value: -1.027 for the first, -0.726 for the second.

`CC(=O)N1CCN(C(=O)C(Cc2cccc(C(=N)N)c2)NS(=O)(=O)NCc2cccc(Oc3ccccc3)c2)CC1` (stereo unspecified) and `CC(=O)N1CCN(C(=O)C(Cc2cccc(C(=N)N)c2)NS(=O)(=O)NCc2ccc(-c3ccccc3)cc2)CC1` (stereo unspecified) are within 0.2 log units of each other in “Log ESA” value: -1.149 for the first, -1.174 for the second.

`CC(=O)N1CCN(C(=O)C(Cc2cccc(C(=N)N)c2)NS(=O)(=O)NCc2ccc(CCc3ccccc3)cc2)CC1` (stereo unspecified) and `CC(=O)N1CCN(C(=O)C(Cc2cccc(C(=N)N)c2)NS(=O)(=O)NCc2ccccc2-c2ccccc2)CC1` (stereo in doubt; 5) are within 0.2 log units of each other in “Log ESA” value: -1.252 for the first, -1.071 for the second.

`CC(CNS(=O)(=O)NC(Cc1cccc(C(=N)N)c1)C(=O)N1CCCC(C(=O)O)C1)c1ccccc1` (stereo in doubt; 9) and `N=C(N)c1cccc(CC(NS(=O)(=O)NCc2cccc3ccccc23)C(=O)N2CCCC(C(=O)O)C2)c1` (stereo in doubt; 10) are within 0.2 log units of each other in “Log ESA” value: -0.762 for the first, -0.752 for the second.

`CC(CNS(=O)(=O)NC(Cc1cccc(C(=N)N)c1)C(=O)N1CCCC(C(=O)O)C1)c1ccccc1` (stereo in doubt; 11) and `N=C(N)c1cccc(CC(NS(=O)(=O)NCc2cccc3ccccc23)C(=O)N2CCCC(C(=O)O)C2)c1` (stereo in doubt; 12) are within 0.2 log units of each other in “Log ESA” value: -0.759 for the first, -0.893 for the second.

For `CC(=O)N1CCN(C(=O)C(Cc2cccc(C(=N)N)c2)NS(=O)(=O)NCc2ccccc2-c2ccccc2)CC1` (stereo in doubt; 20), the “Log ESA” value was -0.987.
